Test results taken from ChEMBL document CHEMBL1201862, “PubChem BioAssay data set” (2004).
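48-hour exposure; five concentrations; linearly interpolated endpoints. GI50 marks 50% less growth.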 The source made the active and inactive calls. Cut-off read from the data, not from the text of the source: active = GI50 up to about 1.1 µM and inactive = higher.

Legend:
Experiment in all cases: DTP human tumour cell line panel, 48 h
NCI-H460 = tested on: NCI-H460
HCC 2998 = tested on: HCC 2998
LOX IMVI = tested on: LOX IMVI
OVCAR-8 = tested on: OVCAR-8
ACHN = tested on: ACHN
OVCAR-3 = tested on: OVCAR-3
KM12 = tested on: KM12
SK-MEL-5 = tested on: SK-MEL-5
NCI-H522 = tested on: NCI-H522
PC-3 = tested on: PC-3
HCT-116 = tested on: HCT-116
MOLT-4 = tested on: MOLT-4
NCI-H226 = tested on: NCI-H226
HL-60 = tested on: HL-60
HCT-15 = tested on: HCT-15
786-0 = tested on: 786-0
CAKI-1 = tested on: CAKI-1
TK-10 = tested on: TK-10
U-251 = tested on: U-251
MDA-MB-435 = tested on: MDA-MB-435
UACC-62 = tested on: UACC-62
IGROV-1 = tested on: IGROV-1
Malme-3M = tested on: Malme-3M
T47D = tested on: T47D
K562 = tested on: K562
RPMI-8226 = tested on: RPMI-8226
NCI/ADR-RES = tested on: NCI/ADR-RES
SK-MEL-28 = tested on: SK-MEL-28
SF-295 = tested on: SF-295
BT-549 = tested on: BT-549
UACC-257 = tested on: UACC-257
OVCAR-4 = tested on: OVCAR-4
EKVX = tested on: EKVX
COLO 205 = tested on: COLO 205
MDA-N = tested on: MDA-N
A498 = tested on: A498
HOP-62 = tested on: HOP-62
MCF7 = tested on: MCF7
DU-145 = tested on: DU-145
M14 = tested on: M14
SF-268 = tested on: SF-268
OVCAR-5 = tested on: OVCAR-5
SK-MEL-2 = tested on: SK-MEL-2
SK-OV-3 = tested on: SK-OV-3
UO-31 = tested on: UO-31
NCI-H23 = tested on: NCI-H23
SN12C = tested on: SN12C
CCRF-CEM = tested on: CCRF-CEM
HT-29 = tested on: HT-29
A549 = tested on: A549
MDA-MB-231 = tested on: MDA-MB-231
HOP-92 = tested on: HOP-92
SW-620 = tested on: SW-620
Hs-578T = tested on: Hs-578T
SNB-19 = tested on: SNB-19
RXF 393 = tested on: RXF 393

C[N+](C)(C)CCCSc1nc2ccccc2[nH]1
GI50 (NCI-H460): > 100 µM (inactive)
GI50 (HCC 2998): > 100 µM (inactive)
GI50 (LOX IMVI): > 100 µM (inactive)
GI50 (OVCAR-8): > 100 µM (inactive)
GI50 (ACHN): > 100 µM (inactive)
GI50 (OVCAR-3): > 100 µM (inactive)
GI50 (KM12): > 100 µM (inactive)
GI50 (SK-MEL-5): > 100 µM (inactive)
GI50 (NCI-H522): > 100 µM (inactive)
GI50 (PC-3): > 100 µM (inactive)
GI50 (HCT-116): > 100 µM (inactive)
GI50 (MOLT-4): > 100 µM (inactive)
GI50 (NCI-H226): > 100 µM (inactive)
GI50 (HL-60): > 100 µM (inactive)
GI50 (HCT-15): > 100 µM
GI50 (786-0): > 100 µM (inactive)
GI50 (CAKI-1): > 100 µM (inactive)
GI50 (TK-10): > 100 µM (inactive)
GI50 (U-251): > 100 µM (inactive)
GI50 (MDA-MB-435): > 100 µM (inactive)
GI50 (UACC-62): > 100 µM (inactive)
GI50 (IGROV-1): > 100 µM (inactive)
GI50 (Malme-3M): > 100 µM (inactive)
GI50 (T47D): > 100 µM (inactive)
GI50 (K562): > 100 µM (inactive)
GI50 (RPMI-8226): > 100 µM (inactive)
GI50 (NCI/ADR-RES): > 100 µM (inactive)
GI50 (SK-MEL-28): > 100 µM (inactive)
GI50 (SF-295): > 100 µM (inactive)
GI50 (BT-549): > 100 µM (inactive)
GI50 (UACC-257): 30.1 µM (inactive)
GI50 (OVCAR-4): > 100 µM (inactive)
GI50 (EKVX): > 100 µM (inactive)
GI50 (COLO 205): > 100 µM (inactive)
GI50 (MDA-N): > 100 µM (inactive)
GI50 (A498): > 100 µM (inactive)
GI50 (HOP-62): > 100 µM (inactive)
GI50 (MCF7): > 100 µM (inactive)
GI50 (DU-145): > 100 µM (inactive)
GI50 (M14): > 100 µM (inactive)
GI50 (SF-268): > 100 µM (inactive)
GI50 (OVCAR-5): 89.7 µM (inactive)
GI50 (SK-MEL-2): > 100 µM (inactive)
GI50 (SK-OV-3): > 100 µM (inactive)
GI50 (UO-31): > 100 µM (inactive)
GI50 (NCI-H23): > 100 µM (inactive)
GI50 (SN12C): > 100 µM (inactive)
GI50 (CCRF-CEM): > 100 µM (inactive)
GI50 (HT-29): > 100 µM (inactive)
GI50 (A549): > 100 µM (inactive)
GI50 (MDA-MB-231): > 100 µM (inactive)
GI50 (HOP-92): > 100 µM (inactive)
GI50 (SW-620): > 100 µM (inactive)
GI50 (Hs-578T): > 100 µM (inactive)
GI50 (SNB-19): > 100 µM (inactive)
GI50 (RXF 393): > 100 µM (inactive)
